From US20260297070A1, “CYCLIC [COMPOUND LEFT OUT] WRN INHIBITORS” (Nimbus Wadjet, Inc., priority 2023, published 2026)
pIC50: −log10 of the molar value.

These molecules were tested against T1, human Werner helicase (WRN-BV08, Uniprot Q14191, amino acids 517-1235 with L1074F point mutation) (Homo sapiens, UniProt Q14191, L1074F) (assay: WRN (BV08) ADP-Glo Assay). Details: 0.15 nM WRN, 5 μM ATP, 0.1 nM DNA duplex, 15 min preincubation, 60 min at 25° C., pH 7.5, 1% DMSO; read-out: ADP-Glo_hWRN_IC50.
T1 construct: Uniprot Q14191, amino acids 517-1235 with L1074F point mutation; TEV-cleavable 8×His (C, cleaved yes); made in house; host or cells: Sf9 insect cells (baculovirus)
Assay type: biochemical
Summary of the method: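 Percent inhibition was normalised to DMSO (max) and 20 μM NSC-617145 (min) controls from ADP-Glo luminescence, and IC50 values came from a four-parameter fit. The reaction ran 60 min at 25 °C with 0.15 nM WRN, 5 μM ATP and 0.1 nM duplex DNA.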

T1 sequence (Q14191 with tags, fused parts or gaps L1074F limits assumed): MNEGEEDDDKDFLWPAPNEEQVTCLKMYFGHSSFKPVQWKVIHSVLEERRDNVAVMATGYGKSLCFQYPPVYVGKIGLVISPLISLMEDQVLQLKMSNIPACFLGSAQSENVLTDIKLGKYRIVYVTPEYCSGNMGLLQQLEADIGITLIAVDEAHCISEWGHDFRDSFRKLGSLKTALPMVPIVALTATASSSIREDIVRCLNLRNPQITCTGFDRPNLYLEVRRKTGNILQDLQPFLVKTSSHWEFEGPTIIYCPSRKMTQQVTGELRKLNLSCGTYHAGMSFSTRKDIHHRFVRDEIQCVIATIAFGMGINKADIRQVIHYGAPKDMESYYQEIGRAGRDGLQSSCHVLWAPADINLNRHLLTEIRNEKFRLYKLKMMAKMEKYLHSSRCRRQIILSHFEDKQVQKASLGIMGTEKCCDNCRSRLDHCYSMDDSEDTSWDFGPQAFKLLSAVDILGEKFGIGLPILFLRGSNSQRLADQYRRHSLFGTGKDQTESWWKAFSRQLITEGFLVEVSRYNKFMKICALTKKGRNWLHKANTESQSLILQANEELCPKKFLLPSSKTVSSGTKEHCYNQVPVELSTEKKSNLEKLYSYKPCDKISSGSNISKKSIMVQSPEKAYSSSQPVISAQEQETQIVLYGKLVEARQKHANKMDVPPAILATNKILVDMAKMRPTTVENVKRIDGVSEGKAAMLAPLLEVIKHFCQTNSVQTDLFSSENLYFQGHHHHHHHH

| SMILES | pIC50 |
| --- | --- |
| CS(=O)(=O)c1ccc(CN(C(=O)Cc2ccc(-n3cccc3)cc2)C2C=CS(=O)(=O)C2)cc1 (centres unmarked) [I-256, N-(1,1-dioxo-2,3-dihydro-1lambda6-thiophen-3-yl)-N-[(4-methanesulfonylphenyl)methyl]-2-[4-(1H-pyrrol-1-yl)phenyl]acetamide] | 5.00 to 5.30 |
| O=C(Cc1ccc(-n2cccc2)cc1)N(Cc1ccccc1F)C1C=CS(=O)(=O)C1 (centres unmarked) [I-257, N-(1,1-dioxo-2,3-dihydro-1lambda6-thiophen-3-yl)-N-[(2-fluorophenyl)methyl]-2-[4-(1H-pyrrol-1-yl)phenyl]acetamide] | 5.00 to 5.30 |
| CN(C)C(=O)c1ccc(CN(C(=O)Cc2ccc(-n3cccc3)cc2)C2C=CS(=O)(=O)C2)cc1 (centres unmarked) [I-259, 4-{[N-(1,1-dioxo-2,3-dihydro-1lambda6-thiophen-3-yl)-2-[4-(1H-pyrrol-1-yl)phenyl]acetamido]methyl}-N,N-dimethylbenzamide] | 5.00 to 5.30 |
| O=C(Cc1ccc(C(F)(F)F)cc1F)N(Cc1ccncc1)C1C=CS(=O)(=O)C1 (centres unmarked) [I-260, N-(1,1-dioxo-2,3-dihydro-1lambda6-thiophen-3-yl)-2-[2-fluoro-4-(trifluoromethyl)phenyl]-N-[(pyridin-4-yl)methyl]acetamide] | 5.00 to 5.30 |
| O=C(Cc1ccc(-c2cccc(F)c2F)cc1)N(Cc1ccncc1)C1C=CS(=O)(=O)C1 (centres unmarked) [I-261, 2-{2′,3′-difluoro-[1,1′-biphenyl]-4-yl}-N-(1,1-dioxo-2,3-dihydro-1lambda6-thiophen-3-yl)-N-[(pyridin-4-yl)methyl]acetamide] | 5.00 to 5.30 |
| O=C(Cc1ccc(CC(F)(F)F)cc1)N(Cc1ccncc1)C1C=CS(=O)(=O)C1 (centres unmarked) [I-263, N-(1,1-dioxo-2,3-dihydro-1lambda6-thiophen-3-yl)-N-[(pyridin-4-yl)methyl]-2-[4-(2,2,2-trifluoroethyl)phenyl]acetamide] | 5.00 to 5.30 |
| CC(C(=O)N(Cc1ccncc1)C1C=CS(=O)(=O)C1)c1ccc(-n2cccc2)cc1 (centres unmarked) [I-265, N-(1,1-dioxo-2,3-dihydro-1lambda6-thiophen-3-yl)-N-[(pyridin-4-yl)methyl]-2-[4-(1H-pyrrol-1-yl)phenyl]propanamide] | 5.00 to 5.30 |
| CC(C(=O)N(Cc1ccncc1)C1C=CS(=O)(=O)C1)c1ccc(-c2ccc(F)cc2)cc1 (centres unmarked) [I-266, N-(1,1-dioxo-2,3-dihydro-1lambda6-thiophen-3-yl)-2-{4′-fluoro-[1,1′-biphenyl]-4-yl}-N-[(pyridin-4-yl)methyl]propanamide] | 5.00 to 5.30 |
| NCCc1cccn1-c1ccc(CC(=O)N(Cc2ccccc2)C2C=CS(=O)(=O)C2)cc1 (centres unmarked) [I-268, 2-{4-[2-(2-aminoethyl)-1H-pyrrol-1-yl]phenyl}-N-benzyl-N-(1,1-dioxo-2,3-dihydro-1lambda6-thiophen-3-yl)acetamide] | 5.00 to 5.30 |
| O=C(Cc1ccc(-n2cccc2)cc1)N(Cc1ccccc1)C1C=C(Br)S(=O)(=O)C1 (centres unmarked) [I-269, 2-(4-(1H-pyrrol-1-yl)phenyl)-N-benzyl-N-(5-bromo-1,1-dioxido-2,3-dihydrothiophen-3-yl)acetamide] | 4.30 to 5.00 |
| O=C(Cc1ccc(-n2cccc2)cc1)N(Cc1cccc(F)c1)C1C=CS(=O)(=O)C1 (centres unmarked) [I-270, N-(1,1-dioxo-2,3-dihydro-1lambda6-thiophen-3-yl)-N-[(3-fluorophenyl)methyl]-2-[4-(1H-pyrrol-1-yl)phenyl]acetamide] | 5.00 to 5.30 |
| N#Cc1cccn1-c1ccc(CC(=O)N(Cc2ccncc2)C2C=CS(=O)(=O)C2)cc1 (centres unmarked) [I-272, 2-[4-(2-cyano-1H-pyrrol-1-yl)phenyl]-N-(1,1-dioxo-2,3-dihydro-1lambda6-thiophen-3-yl)-N-[(pyridin-4-yl)methyl]acetamide] | 5.00 to 5.30 |
| O=C(Cc1ccc(C2CC2(F)F)cc1)N(Cc1ccncc1)C1C=CS(=O)(=O)C1 (centres unmarked) [I-273, 2-[4-(2,2-difluorocyclopropyl)phenyl]-N-(1,1-dioxo-2,3-dihydro-1lambda6-thiophen-3-yl)-N-[(pyridin-4-yl)methyl]acetamide] | 5.00 to 5.30 |
| Cc1cnc(CN(C(=O)Cc2ccc(-n3cccc3)cc2)C2C=CS(=O)(=O)C2)s1 (centres unmarked) [I-274, N-(1,1-dioxo-2,3-dihydro-1lambda6-thiophen-3-yl)-N-[(5-methyl-1,3-thiazol-2-yl)methyl]-2-[4-(1H-pyrrol-1-yl)phenyl]acetamide] | 5.00 to 5.30 |
| O=C(O)c1ccc(CN(C(=O)Cc2ccc(-n3cccc3)cc2)C2C=CS(=O)(=O)C2)cc1 (centres unmarked) [I-275, 4-{[N-(1,1-dioxo-2,3-dihydro-1lambda6-thiophen-3-yl)-2-[4-(1H-pyrrol-1-yl)phenyl]acetamido]methyl}benzoic acid] | 4.30 to 5.00 |
| O=C(Cc1ccc(-n2cccc2)cc1)N(Cc1nccs1)C1C=CS(=O)(=O)C1 (centres unmarked) [I-276, N-(1,1-dioxo-2,3-dihydro-1lambda6-thiophen-3-yl)-2-[4-(1H-pyrrol-1-yl)phenyl]-N-[(1,3-thiazol-2-yl)methyl]acetamide] | 5.00 to 5.30 |

| SMILES | pIC50 |
| --- | --- |
| Cc1ccc(-c2ccc(C(C(=O)N(C)C)C(=O)N(Cc3ccncc3)C3C=CS(=O)(=O)C3)cc2)cc1 (centres unmarked) [I-277, N-(1,1-dioxo-2,3-dihydro-1lambda6-thiophen-3-yl)-N′,N′-dimethyl-2-{4′-methyl-[1,1′-biphenyl]-4-yl}-N-[(pyridin-4-yl)methyl]propanediamide] | 5.00 to 5.30 |
| O=C(Cc1ccc(-n2cccc2)cc1)N(Cc1cc(F)ccc1F)C1C=CS(=O)(=O)C1 (centres unmarked) [I-278, N-[(2,5-difluorophenyl)methyl]-N-(1,1-dioxo-2,3-dihydro-1lambda6-thiophen-3-yl)-2-[4-(1H-pyrrol-1-yl)phenyl]acetamide] | 4.30 to 5.00 |
| O=C(Cc1ncc(-n2cccc2)s1)N(Cc1ccncc1)C1C=CS(=O)(=O)C1 (centres unmarked) [I-279, N-(1,1-dioxo-2,3-dihydro-1lambda6-thiophen-3-yl)-N-[(pyridin-4-yl)methyl]-2-[5-(1H-pyrrol-1-yl)-1,3-thiazol-2-yl]acetamide] | 5.00 to 5.30 |
| COc1ccc(CN(C(=O)Cc2ccc(-n3cccc3)cc2)C2C=CS(=O)(=O)C2)cc1OC (centres unmarked) [I-280, N-[(3,4-dimethoxyphenyl)methyl]-N-(1,1-dioxo-2,3-dihydro-1lambda6-thiophen-3-yl)-2-[4-(1H-pyrrol-1-yl)phenyl]acetamide] | 4.30 to 5.00 |
| CC(C)Cc1ccc(CC(=O)N(Cc2ccncc2)C2C=CS(=O)(=O)C2)cc1 (centres unmarked) [I-283, N-(1,1-dioxo-2,3-dihydro-1lambda6-thiophen-3-yl)-2-[4-(2-methylpropyl)phenyl]-N-[(pyridin-4-yl)methyl]acetamide] | 4.30 to 5.00 |
| CS(=O)(=O)Nc1ccc(CN(C(=O)Cc2ccc(-n3cccc3)cc2)C2C=CS(=O)(=O)C2)cc1 (centres unmarked) [I-284, N-(1,1-dioxo-2,3-dihydro-1lambda6-thiophen-3-yl)-N-[(4-methanesulfonamidophenyl)methyl]-2-[4-(1H-pyrrol-1-yl)phenyl]acetamide] | 4.30 to 5.00 |
| O=C(Cc1ccc(-n2cccc2)cc1)N(Cc1ccc(C2CC2)cn1)C1C=CS(=O)(=O)C1 (centres unmarked) [I-285, N-[(5-cyclopropylpyridin-2-yl)methyl]-N-(1,1-dioxo-2,3-dihydro-1lambda6-thiophen-3-yl)-2-[4-(1H-pyrrol-1-yl)phenyl]acetamide] | 5.00 to 5.30 |
| N#Cc1cccc(CN(C(=O)Cc2ccc(-n3cccc3)cc2)C2C=CS(=O)(=O)C2)c1 (centres unmarked) [I-286, N-[(3-cyanophenyl)methyl]-N-(1,1-dioxo-2,3-dihydro-1lambda6-thiophen-3-yl)-2-[4-(1H-pyrrol-1-yl)phenyl]acetamide] | 4.30 to 5.00 |
| O=C(Cc1ccc(C2CC2)cc1)N(Cc1ccncc1)C1C=CS(=O)(=O)C1 (centres unmarked) [I-287, 2-(4-cyclopropylphenyl)-N-(1,1-dioxo-2,3-dihydro-1lambda6-thiophen-3-yl)-N-[(pyridin-4-yl)methyl]acetamide] | 5.00 to 5.30 |
| Cc1cccc(-c2ccc(CC(=O)N(Cc3ccncc3)C3C=CS(=O)(=O)C3)cc2)c1 (centres unmarked) [I-288, N-(1,1-dioxo-2,3-dihydro-1lambda6-thiophen-3-yl)-2-{3′-methyl-[1,1′-biphenyl]-4-yl}-N-[(pyridin-4-yl)methyl]acetamide] | 4.30 to 5.00 |
| O=C(Cc1cc(-c2ccccc2)n[nH]1)N(Cc1ccncc1)C1C=CS(=O)(=O)C1 (centres unmarked) [I-289, N-(1,1-dioxo-2,3-dihydro-1lambda6-thiophen-3-yl)-2-(3-phenyl-1H-pyrazol-5-yl)-N-[(pyridin-4-yl)methyl]acetamide] | 4.30 to 5.00 |
| O=C(Cc1ccc(-n2cccc2)cc1)N(Cc1ccccc1)C1C=CS(=O)(=O)C1 (centres unmarked) [I-290, N-benzyl-N-(1,1-dioxo-2,3-dihydro-1lambda6-thiophen-3-yl)-2-[4-(1H-pyrrol-1-yl)phenyl]acetamide] | 5.00 to 5.30 |
| O=C(Cn1ncc(-c2ccccc2)n1)N(Cc1ccncc1)C1C=CS(=O)(=O)C1 (centres unmarked) [I-291, N-(1,1-dioxo-2,3-dihydro-1lambda6-thiophen-3-yl)-2-(4-phenyl-2H-1,2,3-triazol-2-yl)-N-[(pyridin-4-yl)methyl]acetamide] | 4.30 to 5.00 |
| O=C(Cc1ccc(-n2cccc2)cc1)N(Cc1cccc(O)c1)C1C=CS(=O)(=O)C1 (centres unmarked) [I-292, N-(1,1-dioxo-2,3-dihydro-1lambda6-thiophen-3-yl)-N-[(3-hydroxyphenyl)methyl]-2-[4-(1H-pyrrol-1-yl)phenyl]acetamide] | 4.30 to 5.00 |
| O=C(Cc1ccc(C(F)(F)F)cc1Br)N(Cc1ccncc1)C1C=CS(=O)(=O)C1 (centres unmarked) [I-293, 2-[2-bromo-4-(trifluoromethyl)phenyl]-N-(1,1-dioxo-2,3-dihydro-1lambda6-thiophen-3-yl)-N-[(pyridin-4-yl)methyl]acetamide] | 4.30 to 5.00 |
| O=C(Cc1ccc(-n2cccc2)cc1)N(Cc1c(F)cccc1F)C1C=CS(=O)(=O)C1 (centres unmarked) [I-294, N-[(2,6-difluorophenyl)methyl]-N-(1,1-dioxo-2,3-dihydro-1lambda6-thiophen-3-yl)-2-[4-(1H-pyrrol-1-yl)phenyl]acetamide] | 4.30 to 5.00 |
